Reference: patent US12404304B1, “Telomerase reverse transcriptase (TERT) expression enhancing compounds and methods for using the same” (Sierra Sciences, LLC, priority 2007, dated 2025)

Tests used:
[1] = test system: human TERT expression (hTERT mRNA); test: Quantitative real-time RT-PCR of hTERT mRNA expression (Ct, transcripts) in compound-treated cells; type: cell-based; conditions: quantitative real-time RT-PCR
In short: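 Read-out is cycle threshold, the cycle at which probe fluorescence released by Taq 5′-nuclease activity crosses a set level; Ct falls as hTERT mRNA rises. cDNA of treated and untreated cells was compared, with starting transcripts quantified against a known-cDNA standard curve.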

viable cells in culture = test: Cell viability assay (CellTiter-Glo Luminescent Cell Viability Assay, ATP quantitation, percent of vehicle control)

Row | Compound | Average Number of hTERT Transcripts [1] | Average Cell Viability after 24 Hours (% DMSO) (viable cells in culture)
1 | COc1ccc(OC)c(NC(=O)C2C3CCC(O3)C2C(=O)O)c1 (centres unmarked) [compound 1221] | 68.62 | 86.33
2 | O=C(O)C1C2CCC(O2)C1C(=O)NCc1ccco1 (centres unmarked) [compound 1222] | 15.04 | 102.27
3 | O=C(O)C1C2CCC(O2)C1C(=O)N1CCN(c2ccc(F)cc2)CC1 (centres unmarked) [compound 1223] | 24.63 | 44.16
4 | N=c1ccn2c(n1)O[C@@H]1[C@@H](O)[C@H](CO)O[C@@H]12 [compound 1226] | 31.01 | 77.96
5 | Cc1cc(C)[n+]2nc3n(-c4ccccc4)c(C)cc(C)c-3c2n1 [compound 1227] | 72.86 | 77.50
6 | CCOC(=O)c1ccc(Nc2nc3nonc3nc2N(CC)CC)cc1 [compound 1228] | 48.23 | 73.46
7 | Cc1ccc(Nc2nc3nonc3nc2NC(C)(C)C)cc1C [compound 1229] | 17.57 | 79.23
8 | Cc1ccc(Nc2nc3nonc3nc2Nc2ccccc2F)cc1 [compound 1230] | 17.54 | 72.00
9 | Cc1cccc(Nc2nc3nonc3nc2Nc2ccc(F)cc2)c1C [compound 1231] | 61.08 | 37.70
10 | CCOc1ccc(NC(=O)c2c(NC(=O)c3ccncc3)sc3c2CCC(C(C)(C)C)C3)cc1 (centres unmarked) [compound 1232] | 23.68 | 112.57
11 | Cc1cccc(NC(=O)c2c(NC(=O)c3ccncc3)sc3c2CCC(C(C)(C)C)C3)c1 (centres unmarked) [compound 1233] | 41.94 | 61.61
12 | Cn1c2c(c(=O)[nH]c1=O)C(c1ccccc1)C1=C(N2)c2ccccc2C1=O (centres unmarked) [compound 1234] | 62.81 | 53.62
13 | Cn1c(=O)c2c(nc(SCc3cc4c(cc3Cl)OCO4)n2C)n(C)c1=O [compound 1235] | 153.66 | 75.75
14 | CCc1ccc(S(=O)(=O)N(C(=O)c2ccccc2)c2ccc3oc(C)c(C(C)=O)c3c2)cc1 [compound 1236] | 5.24 | 86.61
15 | CCCCOC(=O)c1c(C)oc2ccc(NS(=O)(=O)c3ccc4ccccc4c3)cc12 [compound 1237] | 43.79 | 71.28
16 | O=C(O)c1c(-c2ccccc2)c2oc3ccccc3c2[nH]c1=O [compound 1238] | 5.16 | 89.10
17 | CCCCCOC(=O)c1c(C)oc2ccc(NS(=O)(=O)c3ccc(OC)cc3)cc12 [compound 1239] | 31.94 | 66.47
18 | Cc1ccc(-n2c(=O)oc3ccc(Cl)cc3c2=O)cc1 [compound 1241] | 39.79 | 77.91
19 | COc1ccccc1-n1c(=O)oc2ccc(Cl)cc2c1=O [compound 1242] | 56.42 | 80.60
20 | COc1ccc(COC(=O)C2=C(C)NC3=C(C(=O)CC(c4ccco4)C3)C2c2cccs2)cc1 (centres unmarked) [compound 1243] | 5.18 | 99.98
21 | CCOC(=O)C1=C(C)NC2=C(C(=O)CC(c3ccccc3)C2)C1c1cccc(F)c1 (centres unmarked) [compound 1244] | 9.34 | 80.52
22 | CC1=C(C(=O)OC2CCCC2)C(c2cccc(F)c2)C2=C(CC(c3cccs3)CC2=O)N1 (centres unmarked) [compound 1245] | 8.42 | 79.22
